For the experiment, the target named is T1, Recombinant Human SSAO/VAP-1/AOC3 (Homo sapiens, UniProt Q16853).
T1 construct: purchased R&D systems 3957-AO
T1 sequence (Q16853 1-763): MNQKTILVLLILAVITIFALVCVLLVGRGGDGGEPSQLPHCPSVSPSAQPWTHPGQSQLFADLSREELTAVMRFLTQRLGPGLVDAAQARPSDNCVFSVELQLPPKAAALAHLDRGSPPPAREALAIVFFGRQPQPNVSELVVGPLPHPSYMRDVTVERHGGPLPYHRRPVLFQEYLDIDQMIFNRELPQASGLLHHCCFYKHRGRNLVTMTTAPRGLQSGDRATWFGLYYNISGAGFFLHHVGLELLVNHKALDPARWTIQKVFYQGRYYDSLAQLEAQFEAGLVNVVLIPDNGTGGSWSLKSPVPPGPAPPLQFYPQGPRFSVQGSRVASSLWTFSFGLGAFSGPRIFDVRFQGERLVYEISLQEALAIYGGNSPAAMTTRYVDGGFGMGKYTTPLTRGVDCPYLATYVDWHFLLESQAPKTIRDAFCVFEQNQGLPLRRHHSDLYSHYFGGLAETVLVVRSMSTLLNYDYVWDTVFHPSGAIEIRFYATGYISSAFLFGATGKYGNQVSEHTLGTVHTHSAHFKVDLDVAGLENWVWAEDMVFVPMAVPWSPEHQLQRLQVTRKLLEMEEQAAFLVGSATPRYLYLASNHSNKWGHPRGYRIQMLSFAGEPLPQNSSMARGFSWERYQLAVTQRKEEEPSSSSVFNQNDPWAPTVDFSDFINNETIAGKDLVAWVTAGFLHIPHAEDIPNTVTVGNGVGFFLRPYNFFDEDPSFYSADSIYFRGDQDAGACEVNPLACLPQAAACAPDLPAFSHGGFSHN
In words: Human Semicarbazide-Sensitive Amine Oxidase (SSAO) Assay. It counts as biochemical. The note with it: recombinant enzyme, 30 minutes preincubation at 37° C., benzylamine substrate, Amplex Ultra Red/HRP fluorescence. The method, boiled down:
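IC50 from kinetic Amplex Ultra Red/HRP fluorescence (ex 544, em 590 nm, 30-120 min) after benzylamine addition. Beforehand, 6-10 compound dilutions were preincubated 30 min at 37 °C with recombinant human SSAO in 50 mM HEPES (enzyme working concentration 2.5 μg/ml).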

Counter-ions that a name gives are not always drawn.

With `NC/C(=C\F)COc1ccc(C23CCC(C(=O)NCCc4nnn[nH]4)(CC2)CC3)cc1` [Compound 2.11, (E)-N-(2-(1H-tetrazol-5-yl)ethyl)-4-(4-((2-(aminomethyl)-3-fluoroallyl)oxy)phenyl) bicyclo[2.2.2]octane-1-carboxamide], the 50% inhibitory concentration (IC50) is not above 10 nM.

Take `COCCOCCOCCOCCNC(=O)C12CCC(c3ccc(OC/C(=C/F)CN)cc3)(CC1)CC2` [Compound 2.51, (E)-4-(4-((2-(aminomethyl)-3-fluoroallyl)oxy)phenyl)-N-(2,5,8,11-tetraoxatridecan-13-yl)bicyclo[2.2.2]octane-1-carboxamide]: the IC50 was not above 10 nM.

`NC/C(=C\F)COc1ccc(C23CCC(C(=O)N4CCCCC4)(CC2)CC3)cc1` [Compound 2.24, (E)-(4-(4-((2-(amino-methyl)-3-fluoroallyl)oxy)phenyl)bicyclo [2.2.2]octan-1-yl)(piperidin-1-yl)methanone]: the IC50 is not above 10 nM.

`C[C@@H](NC(=O)C12CCC(c3ccc(OC/C(=C/F)CN)cc3)(CC1)CC2)C1CCOCC1` [Compound 2.28, (R,E)-4-(4-((2-(aminomethyl)-3-fluoroallyl)oxy)phenyl)-N-(1-(tetrahydro-2H-pyran-4-yl)ethyl)bicyclo[2.2.2]octane-1-carboxamide]: the IC50 was not above 10 nM.

For `CC1(C)CC(NC(=O)C23CC(c4ccc(OC/C(=C/F)CN)cc4)(C2)C3)CC(C)(C)O1` [Compound 3.02, (E)-3-(4-((2-(aminomethyl)-3-fluoroallyl)oxy)phenyl)-N-(2,2,6,6-tetramethyltetrahydro-2H-pyran-4-yl)bicyclo[1.1.1]pentane-1-carboxamide], the IC50 is not above 10 nM.

Take `CO[C@@H]1CCN(C(=O)C23CCC(c4ccc(OC/C(=C/F)CN)cc4)(CC2)CC3)C1` [Compound 2.133, (R,E)-(4-(4-((2-(aminomethyl)-3-fluoroallyl)oxy)phenyl)bicyclo[2.2.2]octan-1-yl)(3-methoxypyrrolidin-1-yl)methanone]: the 50% inhibitory concentration (IC50) is not above 10 nM.

With `NC/C(=C/F)COc1ccc(C23CCC(C(=O)NC4CCOCC4)(CC2)CC3)cc1` [Compound 2.06b, (Z)-4-(4-((2-(amino-methyl)-3-fluoroally)oxy)phenyl)-N-(tetrahydro-2H-pyran-4-yl)bicyclo[2.2.2]octane-1-carboxamide], the 50% inhibitory concentration (IC50) was not above 10 nM.

For `NC/C(=C\F)COc1ccc(C23CCC(NC(=O)C4CCOCC4)(CC2)CC3)cc1` [Compound 7, (E)-N-(4-(4-((2-(Aminomethyl)-3-fluoroallyl)oxy)phenyl)bicyclo[2.2.2]octan-1-yl)tetrahydro-2H-pyran-4-carboxamide Hydrochloride], the IC50 is not above 10 nM.

Regarding `NC/C(=C\F)COc1ccc(C23CCC(C(=O)N4C5CCC4COC5)(CC2)CC3)cc1` [Compound 2.67, (E)-(4-(4-((2-(aminomethyl)-3-fluoroallyl)oxy)phenyl)bicyclo [2.2.2]octan-1-yl)(3-oxa-8-azabicyclo[3.2.1]octan-8-yl)methanone], the IC50 was not above 10 nM.

For the compound `COCCOC12CCC(c3ccc(OC/C(=C/F)CN)cc3)(CC1)CC2` [Compound 8.03, (E)-3-Fluoro-2-((4-(4-(2-methoxyethoxy)bicyclo[2.2.2]octan-1-yl)phenoxy)methyl)prop-2-en-1-amine Hydrochloride], the half-inhibitory concentration (IC50) is not above 10 nM.

`CC(C)CNC(=O)C12CCC(c3ccc(OC/C(=C/F)CN)cc3)(CC1)CC2` [Compound 2.88, (E)-4-(4-((2-(aminomethyl)-3-fluoroallyl)oxy)phenyl)-N-isobutylbicyclo[2.2.2]octane-1-carboxamide]: the 50% inhibitory concentration (IC50) was not above 10 nM.

As for `CN(CCO)C(=O)C12CCC(c3ccc(OC/C(=C/F)CN)cc3)(CC1)CC2` [Compound 2.54, (E)-4-(4-((2-(aminomethyl)-3-fluoroallyl)oxy)phenyl)-N-(2-hydroxyethyl)-N-methylbicyclo[2.2.2]octane-1-carboxamide], the half-inhibitory concentration (IC50) was not above 10 nM.

For the compound `NC/C(=C\F)COc1ccc(C23CCC(c4nnc(C5CCOCC5)o4)(CC2)CC3)cc1` [Compound 11.02, (E)-3-fluoro-2-((4-(4-(5-(tetrahydro-2H-pyran-4-yl)-1,3,4-oxadiazol-2-yl)bicyclo[2.2.2]octan-1-yl)phenoxy)methyl)prop-2-en-1-amine], the concentration for half-maximal inhibition (IC50) was not above 10 nM.

As for `CO[C@H]1C[C@@H](NC(=O)C23CCC(c4ccc(OC/C(=C/F)CN)cc4)(CC2)CC3)C1` [Compound 2.95, 4-(4-(((E)-2-(Aminomethyl)-3-fluoroallyl)oxy)phenyl)-N-(cis-3-methoxycyclobutyl)bicyclo[2.2.2]octane-1-carboxamide Hydrochloride], the half-maximal inhibitory concentration (IC50) is not above 10 nM.

`COC1CC(NC(=O)C23CCC(c4ccc(OC/C(=C/F)CN)cc4)(CC2)CC3)C1` (centres unmarked) [Compound 2.91, 4-(4-(((E)-2-(aminomethyl)-3-fluoroallyl)oxy)phenyl)-N-((1r,3r)-3-methoxycyclobutyl)bicyclo [2.2.2]octane-1-carboxamide]: the IC50 is not above 10 nM.

In the case of `Cc1cc(C23CCC(C(N)=O)(CC2)CC3)ccc1OC/C(=C/F)CN` [Compound 2.02, (E)-4-(4-((2-(aminomethyl)-3-fluoroallyl)oxy)-3-methylphenyl)bicyclo[2.2.2] octane-1-carboxamide], the IC50 is not above 10 nM.

Regarding `CC(C)NC(=O)C12CCC(c3ccc(OC/C(=C/F)CN)cc3)(CC1)CC2` [Compound 2.23, (E)-4-(4-((2-(aminomethyl)-3-fluoroallyl)oxy)phenyl)-N-isopropylbicyclo [2.2.2]octane-1-carboxamide], the IC50 was not above 10 nM.

Regarding `NC/C(=C\F)COc1ccc(C23CCC(C(=O)N4CCC(O)CC4)(CC2)CC3)cc1` [Compound 2.14, (E)-(4-(4-((2-(aminomethyl)-3-fluoroallyl)oxy)phenyl)bicyclo[2.2.2]octan-1-yl) (4-hydroxypiperidin-1-yl)methanone], the IC50 is not above 10 nM.

For the compound `Cc1cncc(CNC(=O)C23CCC(c4ccc(OC/C(=C/F)CN)cc4)(CC2)CC3)n1` [Compound 2.157, (E)-4-(4-((2-(aminomethyl)-3-fluoroallyl)oxy)phenyl)-N-((6-methylpyrazin-2-yl)methyl)bicyclo[2.2.2]octane-1-carboxamide], the IC50 was not above 10 nM.

As for `CC(C)NC(=O)C12CC3CC(C1)CC(c1ccc(OC/C(=C/F)CN)cc1)(C3)C2` [Compound 6.04, (E)-3-(4-((2-(aminomethyl)-3-fluoroallyl)oxy)phenyl)-N-isopropyladamantane-1-carboxamide], the IC50 was not above 10 nM.

In the case of `NC/C(=C\F)COc1ccc(C23CCC(C(=O)N4CC5CCC(C4)O5)(CC2)CC3)cc1` [Compound 2.71, (E)-(4-(4-((2-(aminomethyl)-3-fluoroallyl)oxy)phenyl)bicyclo [2.2.2]octan-1-yl)(8-oxa-3-azabicyclo[3.2.1]octan-3-yl)methanone], the IC50 was not above 10 nM.

`NC/C(=C\F)COc1ccc(C23CCC(C(=O)NCC4(O)CCOCC4)(CC2)CC3)cc1` [Compound 2.35, (E)-4-(4-((2-(aminomethyl)-3-fluoroallyl)oxy)phenyl)-N-((4-hydroxytetrahydro-2H-pyran-4-yl)methyl)bicyclo[2.2.2]octane-1-carboxamide]: the IC50 was not above 10 nM.

`COc1cccc(CNC(=O)C23CCC(c4ccc(OC/C(=C/F)CN)cc4)(CC2)CC3)n1` [Compound 2.130, (E)-4-(4-((2-(aminomethyl)-3-fluoroallyl)oxy)phenyl)-N-((6-methoxypyridin-2-yl)methyl)bicyclo[2.2.2]octane-1-carboxamide]: the IC50 is not above 10 nM.

One may read the IC50 as the concentration that gives 50% inhibition.
